# Data taken from patent US20110230481A2, “DERIVATIVES OF TETRABROMOBENZIMIDAZOLE, A PROCESS FOR THE PREPARATION THEREOF, A PHARMACEUTICAL COMPOSITION COMPRISING THE SAME, A METHOD OF USING THE SAME, A METHOD FOR MODULATING OR REGULATING SERINE/THREONINE KINASES, AND SERINE/THREONINE KINASES MODULATING AGENT” (SELVITA S.A., priority 2009, published 2011).
# Columns and labels:
# Assay in all cases: KINOMEscan Max
# Type in all cases: binding
# MAP4K3 = target: T1, MAP4K3 (Homo sapiens, UniProt Q8IVH8); conditions: 1 μM
# T1 construct: purchased Ambit (KINOMEscan Max service)
# In short: (§1)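 Competition binding assay: test compound competes with an immobilized, active-site directed ligand for DNA-tagged kinase. Kinase captured on the ligand is quantified by qPCR of the DNA tag.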
# ACVR1 = ACVR1 (Homo sapiens, UniProt Q04771)
# In short: as §1
# TIE1 = target: T2, TIE1 (Homo sapiens, UniProt P35590)
# T2 construct: purchased Ambit Kinomescan (contract screening service)
# In short: as §1
# PLK2 = target: T3, PLK2 (Homo sapiens, UniProt Q9NYY3); conditions: 1 μM
# T3 construct: DNA tag (qPCR read-out)
# In short: as §1
# RIOK2 = target: T4, RIOK2 (Homo sapiens, UniProt Q9BVS4)
# T4 construct: DNA tag (qPCR read-out)
# In short: as §1
# CSNK1A1 = target: T5, CSNK1A1 (Homo sapiens, UniProt P48729)
# T5 construct: DNA tag (qPCR read-out)
# In short: as §1
# PIK3CA(E542K) = PIK3CA(E542K) (Homo sapiens, UniProt P42336, E542K)
# In short: as §1
# MARK1 = target: T6, MARK1 (Homo sapiens, UniProt Q9P0L2)
# T6 construct: purchased Ambit Kinomescan (contract panel)
# In short: as §1
# JNK2 = target: T7, JNK2 (Homo sapiens, UniProt P45984); conditions: 1 μM
# T7 construct: purchased Ambit Kinomescan (contract panel)
# In short: as §1
# ABL1-phssophorylated = ABL1-phssophorylated (Homo sapiens, UniProt P00519)
# In short: as §1
# ADCK4 = target: T8, ADCK4 (Homo sapiens, UniProt Q96D53)
# T8 construct: DNA tag (qPCR read-out)
# In short: as §1
# MEK6 = MEK6 (Homo sapiens, UniProt P52564)
# In short: as §1
# JNK3 = target: T9, JNK3 (Homo sapiens, UniProt P53779); conditions: 1 μM
# T9 construct: purchased Ambit Kinomescan (contract panel)
# In short: as §1
# FLT4 = FLT4 (Homo sapiens, UniProt P35916)
# In short: as §1
# GSK3B = target: T10, GSK3B (Homo sapiens, UniProt P49841)
# T10 construct: purchased Ambit Kinomescan (contract panel, KINOMEscan Max)
# In short: as §1
# LIMK1 = LIMK1 (Homo sapiens, UniProt P53667)
# In short: as §1
# KIT(L576P) = target: T11, KIT(L576P) (Homo sapiens, UniProt P10721, L576P)
# T11 construct: purchased Ambit (KINOMEscan Max service)
# In short: as §1
# AURKC = target: T12, AURKC (Homo sapiens, UniProt Q9UQB9)
# T12 construct: purchased Ambit (KINOMEscan Max service)
# In short: as §1
# CHEK1 = target: T13, CHEK1 (Homo sapiens, UniProt O14757); conditions: 1 μM
# T13 construct: DNA tag (qPCR read-out)
# In short: as §1
# EPHB6 = EPHB6 (Homo sapiens, UniProt O15197)
# In short: as §1
# ADCK3 = ADCK3 (Homo sapiens, UniProt Q8NI60)
# In short: as §1
# RIOK3 = target: T14, RIOK3 (Homo sapiens, UniProt O14730)
# T14 construct: DNA tag (qPCR read-out)
# In short: as §1
# GRK1 = GRK1 (Homo sapiens, UniProt Q15835)
# In short: as §1
# [1] = target: ABL1(T315I)-nonphosphorylated (Homo sapiens, UniProt P00519, T315I)
# In short: as §1
# DYRK2 = target: T15, DYRK2 (Homo sapiens, UniProt Q92630)
# T15 construct: DNA tag (qPCR read-out); purchased Ambit Kinomescan
# In short: as §1
# EGFR(L861Q) = EGFR(L861Q) (Homo sapiens, UniProt P00533, L861Q); conditions: 1 μM
# In short: as §1
# SRPK1 = target: T16, SRPK1 (Homo sapiens, UniProt Q96SB4)
# T16 construct: purchased Ambit (KINOMEscan Max service)
# In short: as §1
# ROCK1 = target: T17, ROCK1 (Homo sapiens, UniProt Q13464)
# T17 construct: DNA tag (qPCR read-out)
# In short: as §1
# FYN = target: T18, FYN (Homo sapiens, UniProt P06241)
# T18 construct: purchased Ambit Kinomescan (contract panel, KINOMEscan Max)
# In short: as §1
# PIK3CA(M1043I) = target: T19, PIK3CA(M1043I) (Homo sapiens, UniProt P42336, M1043I)
# T19 construct: DNA tag (qPCR read-out)
# In short: as §1
# PRKCD = target: T20, PRKCD (Homo sapiens, UniProt Q05655)
# T20 construct: DNA tag (qPCR read-out)
# In short: as §1
# SYK = target: T21, SYK (Homo sapiens, UniProt P43405); conditions: 1 μM
# T21 construct: DNA tag (qPCR read-out)
# In short: as §1
# MLCK = MLCK (Homo sapiens, UniProt Q32MK0)
# In short: as §1
# [2] = target: ABL1(Y253F)-phosphorylated (Homo sapiens, UniProt P00519, Y253F)
# In short: as §1
# ERK5 = target: T22, ERK5 (Homo sapiens, UniProt Q13164)
# T22 construct: purchased Ambit Kinomescan (contract panel, KINOMEscan Max)
# In short: as §1
# T13 sequence (O14757 whole entry): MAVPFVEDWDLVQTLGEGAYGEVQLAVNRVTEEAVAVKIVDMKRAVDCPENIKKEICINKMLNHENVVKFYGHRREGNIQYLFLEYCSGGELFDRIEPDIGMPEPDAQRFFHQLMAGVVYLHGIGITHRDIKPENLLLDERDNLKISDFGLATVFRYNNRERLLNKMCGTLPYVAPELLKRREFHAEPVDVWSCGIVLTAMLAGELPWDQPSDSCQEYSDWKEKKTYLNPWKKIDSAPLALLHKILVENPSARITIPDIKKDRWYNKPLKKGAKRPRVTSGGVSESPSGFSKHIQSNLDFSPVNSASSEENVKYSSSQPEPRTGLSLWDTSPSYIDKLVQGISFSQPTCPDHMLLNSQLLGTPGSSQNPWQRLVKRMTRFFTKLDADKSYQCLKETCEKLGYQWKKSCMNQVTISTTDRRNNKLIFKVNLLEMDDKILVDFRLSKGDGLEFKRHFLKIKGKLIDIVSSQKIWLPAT
# Chain of ACVR1 (Q04771 21-509): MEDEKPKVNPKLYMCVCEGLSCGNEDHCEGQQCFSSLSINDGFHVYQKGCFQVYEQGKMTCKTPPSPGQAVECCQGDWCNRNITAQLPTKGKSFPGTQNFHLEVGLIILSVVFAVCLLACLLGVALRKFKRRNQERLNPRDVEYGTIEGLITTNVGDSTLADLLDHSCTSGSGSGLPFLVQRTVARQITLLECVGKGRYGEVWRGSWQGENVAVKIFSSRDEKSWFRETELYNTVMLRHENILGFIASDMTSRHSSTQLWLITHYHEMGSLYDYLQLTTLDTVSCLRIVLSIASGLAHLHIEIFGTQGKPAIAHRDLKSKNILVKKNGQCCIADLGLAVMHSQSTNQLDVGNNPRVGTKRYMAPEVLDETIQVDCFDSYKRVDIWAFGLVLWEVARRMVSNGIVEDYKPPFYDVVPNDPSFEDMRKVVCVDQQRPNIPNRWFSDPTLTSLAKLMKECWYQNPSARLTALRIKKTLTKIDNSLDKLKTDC
# T7 sequence (P45984 whole entry): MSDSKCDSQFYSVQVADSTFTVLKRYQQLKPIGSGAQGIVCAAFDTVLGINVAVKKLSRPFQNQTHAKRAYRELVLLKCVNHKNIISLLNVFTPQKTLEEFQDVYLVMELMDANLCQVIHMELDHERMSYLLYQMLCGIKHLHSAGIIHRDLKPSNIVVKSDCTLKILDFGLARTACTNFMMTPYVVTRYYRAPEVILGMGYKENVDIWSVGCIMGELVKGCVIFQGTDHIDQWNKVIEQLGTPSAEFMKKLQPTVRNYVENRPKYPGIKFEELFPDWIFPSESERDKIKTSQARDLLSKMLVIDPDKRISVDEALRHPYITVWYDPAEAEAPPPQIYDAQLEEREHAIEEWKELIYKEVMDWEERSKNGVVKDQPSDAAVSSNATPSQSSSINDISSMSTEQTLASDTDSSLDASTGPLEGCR
# Chain of LIMK1 (P53667 whole entry): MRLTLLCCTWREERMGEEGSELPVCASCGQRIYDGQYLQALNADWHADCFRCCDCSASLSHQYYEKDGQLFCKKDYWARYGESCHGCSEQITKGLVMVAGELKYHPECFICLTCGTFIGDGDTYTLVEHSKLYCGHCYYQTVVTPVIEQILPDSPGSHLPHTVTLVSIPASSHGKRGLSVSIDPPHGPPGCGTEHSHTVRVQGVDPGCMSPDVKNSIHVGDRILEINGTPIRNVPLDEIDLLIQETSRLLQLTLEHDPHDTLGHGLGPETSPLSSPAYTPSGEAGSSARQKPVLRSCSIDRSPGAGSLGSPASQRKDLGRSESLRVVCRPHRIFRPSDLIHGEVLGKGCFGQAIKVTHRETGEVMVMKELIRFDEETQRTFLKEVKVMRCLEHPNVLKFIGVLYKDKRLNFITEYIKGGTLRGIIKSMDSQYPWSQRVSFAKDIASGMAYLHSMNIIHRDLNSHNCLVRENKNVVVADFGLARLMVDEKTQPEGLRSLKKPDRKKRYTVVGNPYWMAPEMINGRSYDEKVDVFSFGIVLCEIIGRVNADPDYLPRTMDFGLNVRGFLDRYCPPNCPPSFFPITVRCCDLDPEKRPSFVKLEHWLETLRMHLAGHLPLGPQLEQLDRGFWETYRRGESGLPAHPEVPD
# T18 sequence (P06241 whole entry): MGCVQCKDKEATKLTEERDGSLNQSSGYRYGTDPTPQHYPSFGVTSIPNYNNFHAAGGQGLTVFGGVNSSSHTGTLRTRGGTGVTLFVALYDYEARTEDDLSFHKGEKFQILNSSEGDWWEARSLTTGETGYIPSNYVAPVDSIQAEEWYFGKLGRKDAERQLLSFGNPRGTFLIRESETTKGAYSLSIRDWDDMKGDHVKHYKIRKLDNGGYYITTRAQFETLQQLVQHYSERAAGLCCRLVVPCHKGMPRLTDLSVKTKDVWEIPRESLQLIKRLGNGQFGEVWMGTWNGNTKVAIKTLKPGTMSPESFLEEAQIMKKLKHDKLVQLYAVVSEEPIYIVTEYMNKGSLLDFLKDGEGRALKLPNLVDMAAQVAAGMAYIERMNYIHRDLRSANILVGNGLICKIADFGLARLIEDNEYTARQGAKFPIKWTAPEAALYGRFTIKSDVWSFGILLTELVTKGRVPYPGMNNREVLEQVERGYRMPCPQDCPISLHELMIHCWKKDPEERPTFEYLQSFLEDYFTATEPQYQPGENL
# Chain of EGFR(L861Q) (P00533 25-1210 L861Q): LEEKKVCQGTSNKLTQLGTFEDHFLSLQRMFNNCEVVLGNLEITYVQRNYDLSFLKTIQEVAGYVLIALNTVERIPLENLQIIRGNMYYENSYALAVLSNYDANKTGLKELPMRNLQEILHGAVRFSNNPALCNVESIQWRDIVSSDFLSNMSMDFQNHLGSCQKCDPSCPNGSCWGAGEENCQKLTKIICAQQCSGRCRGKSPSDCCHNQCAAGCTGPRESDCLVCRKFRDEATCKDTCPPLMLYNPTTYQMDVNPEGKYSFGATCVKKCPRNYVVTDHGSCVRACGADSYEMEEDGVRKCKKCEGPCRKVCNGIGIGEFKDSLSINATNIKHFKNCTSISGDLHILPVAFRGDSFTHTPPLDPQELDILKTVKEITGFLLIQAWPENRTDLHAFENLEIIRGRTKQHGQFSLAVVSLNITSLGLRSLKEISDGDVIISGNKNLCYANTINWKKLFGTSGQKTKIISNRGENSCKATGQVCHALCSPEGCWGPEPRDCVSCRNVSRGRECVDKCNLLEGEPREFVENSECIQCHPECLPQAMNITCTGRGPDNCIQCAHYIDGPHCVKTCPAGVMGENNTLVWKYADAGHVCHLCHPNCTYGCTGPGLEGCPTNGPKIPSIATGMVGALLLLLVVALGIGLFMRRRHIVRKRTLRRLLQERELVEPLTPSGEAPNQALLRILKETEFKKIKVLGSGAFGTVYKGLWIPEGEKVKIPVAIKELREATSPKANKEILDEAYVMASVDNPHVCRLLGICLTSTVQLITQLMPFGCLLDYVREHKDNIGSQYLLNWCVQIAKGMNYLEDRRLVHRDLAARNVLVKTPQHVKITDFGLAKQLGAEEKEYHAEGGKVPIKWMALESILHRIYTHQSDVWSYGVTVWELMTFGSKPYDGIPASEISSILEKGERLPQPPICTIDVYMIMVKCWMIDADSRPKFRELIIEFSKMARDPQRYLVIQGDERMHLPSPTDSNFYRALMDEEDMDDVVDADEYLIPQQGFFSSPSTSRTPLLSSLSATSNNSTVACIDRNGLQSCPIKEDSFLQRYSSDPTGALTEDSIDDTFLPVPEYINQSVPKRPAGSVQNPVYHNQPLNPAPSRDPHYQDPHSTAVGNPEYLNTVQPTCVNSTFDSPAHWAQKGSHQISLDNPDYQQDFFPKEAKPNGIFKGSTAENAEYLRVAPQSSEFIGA
# T20 sequence (Q05655 whole entry): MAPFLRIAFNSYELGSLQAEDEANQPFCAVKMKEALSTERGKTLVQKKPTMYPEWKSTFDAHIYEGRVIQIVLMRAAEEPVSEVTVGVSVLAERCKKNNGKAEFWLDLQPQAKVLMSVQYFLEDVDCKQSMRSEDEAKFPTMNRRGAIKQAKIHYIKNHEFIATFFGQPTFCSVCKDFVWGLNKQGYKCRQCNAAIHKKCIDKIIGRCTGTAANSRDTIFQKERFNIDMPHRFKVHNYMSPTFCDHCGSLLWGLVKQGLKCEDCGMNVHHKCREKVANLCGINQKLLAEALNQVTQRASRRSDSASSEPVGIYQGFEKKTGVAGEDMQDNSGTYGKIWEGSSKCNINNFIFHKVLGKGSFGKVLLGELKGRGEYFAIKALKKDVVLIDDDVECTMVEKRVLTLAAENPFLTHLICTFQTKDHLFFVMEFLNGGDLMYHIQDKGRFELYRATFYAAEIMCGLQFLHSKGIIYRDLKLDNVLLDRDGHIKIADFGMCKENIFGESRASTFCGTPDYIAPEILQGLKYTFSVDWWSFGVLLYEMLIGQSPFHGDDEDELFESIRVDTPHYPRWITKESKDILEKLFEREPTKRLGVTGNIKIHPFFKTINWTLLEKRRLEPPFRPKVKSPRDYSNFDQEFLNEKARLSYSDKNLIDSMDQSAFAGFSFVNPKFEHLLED
# T4 sequence (Q9BVS4 whole entry): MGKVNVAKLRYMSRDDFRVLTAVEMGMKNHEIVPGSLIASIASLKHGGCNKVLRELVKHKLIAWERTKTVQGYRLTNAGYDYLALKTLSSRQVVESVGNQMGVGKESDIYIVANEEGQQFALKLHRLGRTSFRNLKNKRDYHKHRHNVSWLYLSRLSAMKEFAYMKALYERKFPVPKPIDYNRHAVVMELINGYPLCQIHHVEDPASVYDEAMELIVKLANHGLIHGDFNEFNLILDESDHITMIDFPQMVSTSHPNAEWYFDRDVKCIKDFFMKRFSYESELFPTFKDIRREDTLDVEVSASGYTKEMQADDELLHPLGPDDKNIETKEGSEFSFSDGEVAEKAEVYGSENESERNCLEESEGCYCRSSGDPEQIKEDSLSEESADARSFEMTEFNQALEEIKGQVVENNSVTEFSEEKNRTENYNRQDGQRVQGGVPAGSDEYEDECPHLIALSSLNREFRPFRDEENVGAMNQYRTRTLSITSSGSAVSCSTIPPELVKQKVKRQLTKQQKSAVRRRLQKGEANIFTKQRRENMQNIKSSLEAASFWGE
structure (smiles),measurement,setting,value
"NCCCNc1nc2c(Br)c(Br)c(Br)c(Br)c2[nH]1 [Compound 11, N-(3-aminopropyl)-4,5,6,7-tetrabromo-1H-benzo[d]imidazol-2-amine]",% binding,MAP4K3,85%
same,remaining binding at 1 µM,ACVR1,100%
same,remaining binding at 1 µM,TIE1,100%
same,% binding,PLK2,31%
same,remaining binding at 1 µM,RIOK2,100%
same,remaining binding at 1 µM,CSNK1A1,35%
same,remaining binding at 1 µM,PIK3CA(E542K),98%
same,remaining binding at 1 µM,MARK1,100%
same,% binding,JNK2,100%
same,remaining binding at 1 µM,ABL1-phssophorylated,94%
same,remaining binding at 1 µM,ADCK4,87%
same,remaining binding at 1 µM,MEK6,100%
same,% binding,JNK3,100%
same,remaining binding at 1 µM,FLT4,94%
same,remaining binding at 1 µM,GSK3B,100%
same,remaining binding at 1 µM,LIMK1,96%
same,remaining binding at 1 µM,KIT(L576P),83%
same,remaining binding at 1 µM,AURKC,83%
same,% binding,CHEK1,88%
same,remaining binding at 1 µM,EPHB6,95%
same,remaining binding at 1 µM,ADCK3,76%
same,remaining binding at 1 µM,RIOK3,52%
same,remaining binding at 1 µM,GRK1,96%
same,remaining binding at 1 µM,[1],100%
same,remaining binding at 1 µM,DYRK2,4.5%
same,% binding,EGFR(L861Q),96%
same,remaining binding at 1 µM,SRPK1,67%
same,remaining binding at 1 µM,ROCK1,28%
same,remaining binding at 1 µM,FYN,100%
same,remaining binding at 1 µM,PIK3CA(M1043I),100%
same,remaining binding at 1 µM,PRKCD,56%
same,% binding,SYK,100%
same,remaining binding at 1 µM,MLCK,92%
same,remaining binding at 1 µM,[2],100%
same,remaining binding at 1 µM,ERK5,100%
